According to ChEMBL document CHEMBL1667762, “Synthesis, antidepressant and antifungal evaluation of novel 2-chloro-8-methylquinoline amine derivatives” (Eur J Med Chem, 2011):
Values after ≈ are worked out from the molar mass of the structure shown. Active and inactive are the calls of the source. The calls are words filed in the database; no cut-off is given here.

Key:
[1] = Antifungal activity against Monascus purpureus MTCC 369 after 72 hrs; assay type: functional
Aspergillus niger = experiment: Antifungal activity against Aspergillus niger MTCC 281 after 72 hrs; assay type: functional
Penicillium citrinum = experiment: Antifungal activity against Penicillium citrinum NCIM 768 after 72 hrs; assay type: functional
Aspergillus flavus = experiment: Antifungal activity against Aspergillus flavus MTCC 277 after 72 hrs; assay type: functional; settings: for MIC: Aspergillus flavus, MTCC 277, 72 h
Rattus norvegicus [2] = species on record: Rattus norvegicus; settings: Brain, 5 uM
Description: Inhibition of MAO in rat brain homogenate at 5 uM using kynuramine as substrate by fluorimetry

Rattus norvegicus [3] = species on record: Rattus norvegicus; experiment: Inhibition of MAO in rat brain homogenate at 0.0005 M using kynuramine as substrate by fluorimetry; assay type: tissue-based
Rattus norvegicus [4] = experiment: Antidepressant activity in Albino rat assessed as immobility time at 100 mg/kg, ip by forced swimming test (reference value: 112.4 +/- 2.88 sec); assay type: functional; settings: route intraperitoneal
Rattus norvegicus [5] = experiment: Neurotoxicity in rat assessed as impair in motor coordination at 100 mg/kg, ip after 30 mins by rotarod test (reference value: 116.50 +/- 1.18 sec); assay type: toxicity, organism-based; design: dose 100 mg/kg, route intraperitoneal; settings: in vivo, 0.5 h
Rattus norvegicus [6] = experiment: Antidepressant activity in Albino rat assessed as immobility time at 20 mg/kg, ip by forced swimming test (reference value: 112.4 +/- 2.88 sec); assay type: functional; settings: route intraperitoneal
Rattus norvegicus [7] = species on record: Rattus norvegicus; experiment: Neurotoxicity in rat assessed as impair in motor coordination at after 30 mins by rotarod test (reference value: 116.50 +/- 1.18 sec); assay type: toxicity, organism-based; settings: in vivo, 0.5 h
[8] = Aspergillus niger, MTCC 281, 72 h
[9] = Penicillium citrinum, NCIM 768, 72 h

SMILES	MIC [1]	inhibition zone (IZ) [1]	inhibition zone (IZ) (Aspergillus niger)	MIC (Aspergillus niger; [8]) [µg/mL]	inhibition zone (IZ) (Penicillium citrinum)	MIC (Penicillium citrinum; [9]) [µg/mL]	inhibition zone (IZ) (Aspergillus flavus) [mm]	MIC (Aspergillus flavus) [µg/mL]	inhibition (Rattus norvegicus [2]) [%]	inhibition (Rattus norvegicus [3]) [%]	Time (Rattus norvegicus [4]) [s]	Time (Rattus norvegicus [5]) [s]	Time (Rattus norvegicus [6]) [s]	Time (Rattus norvegicus [7]) [s]	MIC (Penicillium citrinum)	MIC (Aspergillus niger)
Cc1cccc2cc(CNc3ccccc3Cl)c(Cl)nc12	100 µg/mL (≈ 315 µM)	6.5 mm	5.5 mm	50 (≈ 158 µM)	6 mm	100 (≈ 315 µM)	6	50 (≈ 158 µM)								
N[C@@H]1C[C@H]1c1ccccc1.N[C@H]1C[C@@H]1c1ccccc1									91.6							
Cc1cccc2cc(CNc3ccc(Cl)cc3)c(Cl)nc12	50 µg/mL (≈ 158 µM)	7 mm	7.5 mm	12.5 (≈ 39.4 µM)	6 mm	50 (≈ 158 µM)	6.5	12.5 (≈ 39.4 µM)		23.5	77.2	95.17				
CNCCC(Oc1ccc(C(F)(F)F)cc1)c1ccccc1 (stereo unspecified) [FLUOXETINE]	6.25 µg/mL (≈ 20.2 µM)	9 mm	10.5 mm	6.25 (≈ 20.2 µM)	8 mm	6.25 (≈ 20.2 µM)		6.25 (≈ 20.2 µM)					55.4	107.2		
Cc1cccc2cc(CNc3ccc(Br)cc3)c(Cl)nc12	100 µg/mL (≈ 276 µM)	7 mm	5.5 mm	25 (≈ 69.1 µM)	6.5 mm	100 (≈ 276 µM)	6	25 (≈ 69.1 µM)								
Cc1cccc2cc(CNc3ccc(F)c(Cl)c3)c(Cl)nc12	25 µg/mL (≈ 74.6 µM)	5.5 mm	8.5 mm	12.5 (≈ 37.3 µM)	6 mm	25 (≈ 74.6 µM)	8.5	12.5 (≈ 37.3 µM)		32.1	74.2	93.67				
COc1ccc(NCc2cc3cccc(C)c3nc2Cl)cc1	100 µg/mL (≈ 320 µM)	5.5 mm	6.5 mm	50 (≈ 160 µM)	6.5 mm	100 (≈ 320 µM)	6.5	50 (≈ 160 µM)								
CN(C)CCCN1c2ccccc2CCc2ccc(Cl)cc21 [CLOMIPRAMINE]													63.4	110.83		
Cc1cccc2cc(CNCc3ccccc3)c(Cl)nc12	100 µg/mL (≈ 337 µM)	7 mm	5.5 mm	12.5 (≈ 42.1 µM)	6.5 mm	100 (≈ 337 µM)	6	12.5 (≈ 42.1 µM)			78.4	98.33				
Cc1ccc(NCc2cc3cccc(C)c3nc2Cl)cc1	100 µg/mL (≈ 337 µM)	7.5 mm	6 mm	50 (≈ 168 µM)	6 mm	100 (≈ 337 µM)	7	50 (≈ 168 µM)			96.6	96.5				
Cc1cccc2cc(CNc3ccc(Cl)c(Cl)c3)c(Cl)nc12	50 µg/mL (≈ 142 µM)	8 mm	8 mm	12.5 (≈ 35.5 µM)	6.5 mm	25 (≈ 71.1 µM)	9	12.5 (≈ 35.5 µM)		35	73.6	90.83				
Cc1cccc2cc(CNc3cccc(Cl)c3)c(Cl)nc12	50 µg/mL (≈ 158 µM)	6.5 mm	5.5 mm	12.5 (≈ 39.4 µM)	5.5 mm	25 (≈ 78.8 µM)	6	12.5 (≈ 39.4 µM)		26.8	76.2	97.83				
Cc1cccc(NCc2cc3cccc(C)c3nc2Cl)c1	inactive	inactive	6 mm	100 (≈ 337 µM)	inactive		5.5	100 (≈ 337 µM)							inactive	
OC(Cn1cncn1)(Cn1cncn1)c1ccc(F)cc1F [FLUCONAZOLE]	6.25 µg/mL (≈ 20.4 µM)	11 mm	13.5 mm	6.25 (≈ 20.4 µM)	12 mm	6.25 (≈ 20.4 µM)	14.5	6.25 (≈ 20.4 µM)								
Cc1cccc2cc(CNC3CCCCC3)c(Cl)nc12	inactive	inactive	5.5 mm	200 (≈ 692 µM)	5.5 mm	200 (≈ 692 µM)	5.5	200 (≈ 692 µM)		20.6	76.6	97.17				
Cc1ccccc1NCc1cc2cccc(C)c2nc1Cl	inactive	inactive	6.5 mm	100 (≈ 337 µM)	inactive		7	100 (≈ 337 µM)							inactive	
Cc1cccc2cc(CNc3ccccc3)c(Cl)nc12	100 µg/mL (≈ 354 µM)	7 mm	6 mm	25 (≈ 88.4 µM)	6 mm	100 (≈ 354 µM)	6.5	25 (≈ 88.4 µM)			103.2	100.33				
Cc1cccc2cc(CNc3ccc([N+](=O)[O-])cc3)c(Cl)nc12	inactive	inactive	7 mm	100 (≈ 305 µM)	inactive		6.5	100 (≈ 305 µM)			86.8	93.5			inactive	
CCCCNCc1cc2cccc(C)c2nc1Cl	inactive	inactive	inactive		5 mm	200 (≈ 761 µM)	5	200 (≈ 761 µM)			97.2	92.34				inactive
Cc1cccc2cc(CNc3ccc(F)cc3)c(Cl)nc12	50 µg/mL (≈ 166 µM)	8 mm	6 mm	12.5 (≈ 41.6 µM)	7 mm	50 (≈ 166 µM)	6	12.5 (≈ 41.6 µM)		19.6	80.4	91.33				
